Drawing on US9067897B2, “2,4-Diaminoquinazolines for spinal muscular atrophy” (Families of Spinal Muscular Atrophy, priority 2004, dated 2015), this text covers EC50 for 19 molecules.

In general, EC50 refers to the concentration giving half of the maximal effect.

Where a name gives a salt, the structure may show the parent alone.

One test deals with SMN2 promoter. Briefly: SMN2 promoter assay (β-lactamase reporter) in NSC-34 cells. Format: cell-based, mouse. Conditions: Mus musculus, SMN2 promoter driving β-lactamase, 12 point dose curve, average of 3-6 dose curve experiments. The text has this:
All compounds were screened using an in vitro based SMN2 promoter assay. We used NSC-34 cells, a hybrid cell line between mouse spinal cord cells and mouse neuroblastoma cells. NSC-34 cells harbor an expression plasmid containing a 3.4 kb promoter fragment of the SMN2 gene driving β-lactamase expression.
[…] […] CCF2-AM diffuses across the plasma membrane and is converted into an active β-lactamase substrate by cytoplasmic esterase. […] The fold induction is proportional to the extent of β-lactamase produced and in turn proportional to SMN2 promoter activation for a given compound relative to vehicle (DMSO) control. […] These values are used to rank activities of the compounds and derive structure activity relationship.
For the molecule `CC(Oc1cccc2nc(N)nc(N)c12)c1ccc(C(F)(F)F)cc1` (stereo not shown) [Example 105, 5-[1-(4-Trifluoromethylphenyl)ethoxy]quinazoline-2,4-diamine], the EC50 was less than 1 µM.

`Nc1nc(N)c2c(OCc3cc(Cl)cc(Cl)c3)cccc2n1` [Example 106, 5-(3,5-Dichlorobenzyloxy)quinazoline-2,4-diamine] registered an EC50 of less than 1 µM.

Molecule `CC(Oc1cccc2nc(N)nc(N)c12)c1cc(F)cc(F)c1` (stereo not shown) [Example 107, 5-[1-(3,5-Difluorophenyl)ethoxy]quinazoline-2,4-diamine] registered an EC50 of less than 1 µM.

Consider `C[C@H](Oc1cccc2nc(N)nc(N)c12)c1cccc2ccccc12` [Example 108, 5-((S)-1-Naphthalen-1-yl-ethoxy)-quinazoline-2,4-diamine], for which the EC50 lay in the range of 1 to 5 µM.

In the case of `C[C@H](Oc1cccc2nc(N)nc(N)c12)c1ccc2ccccc2c1` [Example 109, 5-((S)-1-Naphthalen-2-yl-ethoxy)-quinazoline-2,4-diamine], the EC50 was less than 1 µM.

On to `C[C@@H](Oc1cccc2nc(N)nc(N)c12)c1cccc2ccccc12` [Example 110, 5-((R)-1-Naphthalen-1-yl-ethoxy)-quinazoline-2,4-diamine], for which the EC50 fell in the range of 1 to 5 µM.

As for `CC(Oc1cccc2nc(N)nc(N)c12)c1cccc2ccccc12` (stereo not shown) [Example 111, 5-(1-Naphthalen-1-yl-ethoxy)-quinazoline-2,4-diamine], the EC50 is 1 to 5 µM.

In the case of `Nc1nc(N)c2c(OCc3cnc4ccccc4c3)cccc2n1` [Example 112, 5-(Quinolin-3-ylmethoxy)-quinazoline-2,4-diamine], the EC50 was less than 1 µM.

`Nc1nc(N)c2c(OCc3cccc4cccnc34)cccc2n1` [Example 113, 5-(Quinolin-8-ylmethoxy)-quinazoline-2,4-diamine] registered an EC50 of less than 1 µM.

`COCC(Oc1cccc2nc(N)nc(N)c12)c1ccc(Cl)cc1` (stereo not shown) [Example 114, 5-[1-(4-Chlorophenyl)-2-methoxyethoxy]-quinazoline-2,4-diamine] registered an EC50 of less than 1 µM.

As to `Nc1nc(N)c2c(OC(C(=O)O)c3ccc(Cl)cc3)cccc2n1` (stereo not shown) [Example 115, (4-Chlorophenyl)-(2,4-diamino-quinazolin-5-yloxy)-acetic acid], the EC50 is less than 1 µM.

As for `Nc1nc(N)c2c(OCC3CCNCC3)cccc2n1` [Example 116, 5-(Piperidin-4-ylmethoxy)-quinazoline-2,4-diamine hydrochloride], the EC50 was less than 1 µM.

The molecule `CN1CCCCC1COc1cccc2nc(N)nc(N)c12` (stereo not shown) [Example 117, 5-(1-Methyl-piperidin-2-ylmethoxy)-quinazoline-2,4-diamine] had an EC50 of less than 1 µM.

The molecule `Nc1nc(N)c2c(O[C@@H]3C[C@H]4CC[C@@H]3C4)cccc2n1` [Example 118, 5-((1R,2R,4S)-Bicyclo[2.2.1]hept-2-yloxy)quinazoline-2,4-diamine] showed an EC50 of less than 1 µM.

Take `CC(Oc1cccc2nc(N)nc(N)c12)C1CCCC1` (stereo not shown) [Example 120, 5-(1-Cyclopentyl-ethoxy)-quinazoline-2,4-diamine]: the EC50 is less than 1 µM.

`CC(C)(C)OC(=O)N1CCC(COc2cccc3nc(N)nc(N)c23)CC1` [Example 121, 4-(2,4-Diamino-quinazolin-5-yloxymethyl)-piperidin-1-carboxylic acid tert-butyl ester] registered an EC50 of less than 1 µM.

Take `Nc1nc(N)c2c(OCC3CC4C=CC3C4)cccc2n1` (stereo not shown) [Example 122, 5-(Bicyclo[2.2.1]hept-5-en-2-ylmethoxy)-quinazoline-2,4-diamine]: the EC50 was less than 1 µM.

Molecule `Nc1nc(N)c2c(OCC3CCN(C(=O)c4ccc(Cl)cc4)CC3)cccc2n1` [Example 123, (4-Chlorophenyl)-[4-(2,4-diamino-quinazolin-5-yloxymethyl)-piperidin-1-yl]-methanone] gave an EC50 of less than 1 µM.

The same test, now with this note: SMN2 promoter driving β-lactamase, 12 point dose curve, average of 3-6 dose curve experiments.
Molecule `Nc1nc(N)c2c(OC3C4CC5CC(C4)CC3C5)cccc2n1` (stereo not shown) [Example 119, 5-(Adamanta-2-yloxy)quiazoline-2,4-diamine] displayed an EC50 of less than 1 µM.
